Measured values: patent publication US6914045B2, “Glycopeptide antibiotics” (Wyeth Holdings Corporation, priority 2001, dated 2005)
Converted amounts (≈) assume the structure as drawn.

What was measured:
Streptococcus sp. = assay: in vitro antibacterial evaluation, MIC by broth dilution; type: cell-based; conditions: broth dilution, 18 hours at 35° C.
Method in brief: (§1)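 Step 1: dilute antibiotic across 64-0.06 μg/mL in Muller-Hinton II […]. Step 2: inoculate at 5×10^5 CFU/mL.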

Enterococcus sp. = assay: as above; type: cell-based; conditions: broth dilution, 18 hours at 35° C.
Method in brief: as §1

Staphylococcus sp. = assay: as above; type: cell-based; conditions: broth dilution, 18 hours at 35° C.
Method in brief: as §1

[1] = system: Staphylococcus aureus-SMITH (GC 4543); assay: acute lethal infection in mice; type: in vivo; conditions: acute lethal infection, female CD-1 mice, intraperitoneal challenge, intravenous 30 min. after infection, 7 day survival
Method in brief: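 ED50 from 7 day survival ratios pooled over 3 separate tests. Female CD-1 mice, 20+/−2 gm, ip bacterial challenge (trypticase soy broth or hog gastric mucin) lethal to untreated controls in 24-48 hr; iv dosing 30 min after infection in saline or 5% dextrose, n=5/dose.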

Escherichia coli = assay: in vitro antibacterial evaluation, MIC by broth dilution; type: cell-based; conditions: 18 hours at 35° C.

**Q.** Which results are given for `CC(c1ccccc1)C1NC(=O)CNC(=O)C(CO)NC(=O)C(C(O)C2CNC(=N)N2C2OC(CO)C(O)C(O)C2O)NC(=O)C(C(O)C2CNC(=N)N2)NC(=O)C(Cc2ccc(OC3OC(CO)C(OC4OC(COCc5ccc(OCc6ccccc6)cc5)C(O)C(O)C4O)C(O)C3O)cc2)NC1=O` (stereo not drawn) [Example 231, Cyclo[glycyl-β-methylphenylalanyl-O-[4-O-[6-O-[4-(phenylmethoxy)benzyl]hexopyranosyl]-hexopyranosyl]tyrosyl-3-(2-iminoimidazolidin-4-yl)seryl-3-(3-hexopyranosyl-2-iminoimidazolidin-4-yl)serylseryl]]?
**A.** MIC Streptococcus agalactiae (GC 4564) (Streptococcus sp.): <0.06 µg/mL; MIC Streptococcus pneumoniae (ATCC 6301) (Streptococcus sp.): <0.06 µg/mL; MIC Streptococcus pneumoniae (GC 1894) (Streptococcus sp.): <0.06 µg/mL; MIC Streptococcus pneumoniae (GC 4565) (Streptococcus sp.): <0.06 µg/mL; MIC Streptococcus pyogenes (GC 4563) (Streptococcus sp.): <0.06 µg/mL; MIC Streptococcus pneumoniae (ATCC 6301) (Streptococcus sp.; inoculum 5×10^5 CFU/mL, strain ATCC 6301): <0.06 µg/mL; MIC Streptococcus pneumoniae (GC 1894) (Streptococcus sp.; inoculum 5×10^5 CFU/mL, strain GC 1894): <0.06 µg/mL; MIC Streptococcus pyogenes (GC 4563) (Streptococcus sp.; inoculum 5×10^5 CFU/mL, strain GC 4563): <0.06 µg/mL; MIC Streptococcus agalactiae (GC 4564) (Streptococcus sp.; inoculum 5×10^5 CFU/mL, strain GC 4564): <0.06 µg/mL; MIC Streptococcus pneumoniae (GC 4565) (Streptococcus sp.; inoculum 5×10^5 CFU/mL, strain GC 4565): <0.06 µg/mL; MIC Enterococcus avium (GC 4558) (Enterococcus sp.): 2 to 4 µg/mL; MIC Enterococcus faecalis (ATCC 29212) (Enterococcus sp.): 4 µg/mL (≈ 2.68 µM); MIC Enterococcus faecalis (GC 2242) (Enterococcus sp.): 4 µg/mL (≈ 2.68 µM); MIC Enterococcus faecalis (GC 2691) (Enterococcus sp.): 2 to 4 µg/mL; MIC Enterococcus faecalis (GC 3059) (Enterococcus sp.): 2 to 4 µg/mL; MIC Enterococcus faecalis (GC 4552) (Enterococcus sp.): 4 µg/mL (≈ 2.68 µM); MIC Enterococcus faecalis (GC 4553) (Enterococcus sp.): 4 µg/mL (≈ 2.68 µM); MIC Enterococcus faecalis (GC 4554) (Enterococcus sp.): 4 µg/mL (≈ 2.68 µM); MIC Enterococcus faecalis (GC 6189) (Enterococcus sp.): 2 to 4 µg/mL; MIC Enterococcus faecium (GC 2243) (Enterococcus sp.): 4 µg/mL (≈ 2.68 µM); MIC Enterococcus faecium (GC 4556) (Enterococcus sp.): 4 µg/mL (≈ 2.68 µM); MIC Enterococcus faecium (GC 4557) (Enterococcus sp.): 1 to 2 µg/mL; MIC Enterococcus faecalis (ATCC 29212) (Enterococcus sp.; inoculum 5×10^5 CFU/mL, strain ATCC 29212): 4 µg/mL (≈ 2.68 µM); MIC Enterococcus faecalis (GC 2242) (Enterococcus sp.; inoculum 5×10^5 CFU/mL, strain GC 2242): 4 µg/mL (≈ 2.68 µM); MIC Enterococcus faecium (GC 2243) (Enterococcus sp.; inoculum 5×10^5 CFU/mL, strain GC 2243): 4 µg/mL (≈ 2.68 µM); MIC Enterococcus faecalis (GC 2691) (Enterococcus sp.; inoculum 5×10^5 CFU/mL, strain GC 2691): 2 to 4 µg/mL; MIC Enterococcus faecalis (GC 3059) (Enterococcus sp.; inoculum 5×10^5 CFU/mL, strain GC 3059): 2 to 4 µg/mL; MIC Enterococcus faecalis (GC 4552) (Enterococcus sp.; inoculum 5×10^5 CFU/mL, strain GC 4552): 4 µg/mL (≈ 2.68 µM); MIC Enterococcus faecalis (GC 4553) (Enterococcus sp.; inoculum 5×10^5 CFU/mL, strain GC 4553): 4 µg/mL (≈ 2.68 µM); MIC Enterococcus faecalis (GC 4554) (Enterococcus sp.; inoculum 5×10^5 CFU/mL, strain GC 4554): 4 µg/mL (≈ 2.68 µM); MIC Enterococcus faecium (GC 4556) (Enterococcus sp.; inoculum 5×10^5 CFU/mL, strain GC 4556): 4 µg/mL (≈ 2.68 µM); MIC Enterococcus faecium (GC 4557) (Enterococcus sp.; inoculum 5×10^5 CFU/mL, strain GC 4557): 1 to 2 µg/mL; MIC Enterococcus avium (GC 4558) (Enterococcus sp.; inoculum 5×10^5 CFU/mL, strain GC 4558): 2 to 4 µg/mL; MIC Enterococcus faecalis (GC 6189) (Enterococcus sp.; inoculum 5×10^5 CFU/mL, strain GC 6189): 2 to 4 µg/mL; MIC Coagulase Negative Staphylococcus (GC 4547) (Staphylococcus sp.): 1 to 2 µg/mL; MIC Coagulase Negative Staphylococcus (GC 4548) (Staphylococcus sp.): 0.5 to 1 µg/mL; MIC Coagulase Negative Staphylococcus (GC 4549) (Staphylococcus sp.): 0.25 to 0.5 µg/mL; MIC Coagulase Negative Staphylococcus (GC 4551) (Staphylococcus sp.): 1 µg/mL (≈ 0.67 µM); MIC Coagulase Negative Staphylococcus (GC 6257) (Staphylococcus sp.): 0.5 to 1 µg/mL; MIC Staphylococcus aureus (ATCC 29213) (Staphylococcus sp.): 1 to 4 µg/mL; MIC Staphylococcus aureus (GC 1131) (Staphylococcus sp.): 2 to 4 µg/mL; MIC Staphylococcus aureus (GC 3051) (Staphylococcus sp.): 1 to 2 µg/mL; MIC Staphylococcus aureus (GC 3053) (Staphylococcus sp.): 1 to 2 µg/mL; MIC Staphylococcus aureus (GC 4541) (Staphylococcus sp.): 1 to 4 µg/mL; MIC Staphylococcus aureus (GC 4542) (Staphylococcus sp.): 2 to 4 µg/mL; MIC Staphylococcus aureus (GC 4544) (Staphylococcus sp.): 2 to 4 µg/mL; MIC Staphylococcus aureus (GC 4545) (Staphylococcus sp.): 1 to 4 µg/mL; MIC Staphylococcus aureus-SMITH (GC 4543) (Staphylococcus sp.): 2 µg/mL (≈ 1.34 µM); MIC Staphylococcus haemolyticus (GC 4546) (Staphylococcus sp.): 1 to 4 µg/mL; MIC Staphylococcus aureus (ATCC 29213) (Staphylococcus sp.; strain ATCC 29213): 1 to 4 µg/mL; MIC Staphylococcus aureus (GC 1131) (Staphylococcus sp.; strain GC 1131): 2 to 4 µg/mL; MIC Staphylococcus aureus (GC 3051) (Staphylococcus sp.; strain GC 3051): 1 to 2 µg/mL; MIC Staphylococcus aureus (GC 3053) (Staphylococcus sp.; strain GC 3053): 1 to 2 µg/mL; MIC Staphylococcus aureus (GC 4541) (Staphylococcus sp.; strain GC 4541): 1 to 4 µg/mL; MIC Staphylococcus aureus (GC 4542) (Staphylococcus sp.; strain GC 4542): 2 to 4 µg/mL; MIC Staphylococcus aureus-SMITH (GC 4543) (Staphylococcus sp.; strain GC 4543): 2 µg/mL (≈ 1.34 µM); MIC Staphylococcus aureus (GC 4544) (Staphylococcus sp.; strain GC 4544): 2 to 4 µg/mL; MIC Staphylococcus aureus (GC 4545) (Staphylococcus sp.; strain GC 4545): 1 to 4 µg/mL; MIC Staphylococcus haemolyticus (GC 4546) (Staphylococcus sp.; strain GC 4546): 1 to 4 µg/mL; MIC Coagulase Negative Staphylococcus (GC 4547) (Staphylococcus sp.; strain GC 4547): 1 to 2 µg/mL; MIC Coagulase Negative Staphylococcus (GC 4548) (Staphylococcus sp.; strain GC 4548): 0.5 to 1 µg/mL; MIC Coagulase Negative Staphylococcus (GC 4549) (Staphylococcus sp.; strain GC 4549): 0.25 to 0.5 µg/mL; MIC Coagulase Negative Staphylococcus (GC 4551) (Staphylococcus sp.; strain GC 4551): 1 µg/mL (≈ 0.67 µM); MIC Coagulase Negative Staphylococcus (GC 6257) (Staphylococcus sp.; strain GC 6257): 0.5 to 1 µg/mL; median effective dose (ED50), Staphylococcus aureus-SMITH (GC 4543) [1]: 0.25 mg/kg; MIC Escherichia coli (ATCC 25922) (Escherichia coli): >128 µg/mL; MIC Escherichia coli (GC 4559) (Escherichia coli): >128 µg/mL; MIC Escherichia coli (GC 4560) (Escherichia coli): 0.5 to 2 µg/mL
